From ChEMBL document CHEMBL5113555, “Potent PROTACs Targeting EGFR Mutants in Drug Discovery” (ACS Med Chem Lett, 2022)

What was measured:
[1] = tested on: Protein cereblon/Epidermal growth factor receptor (Homo sapiens), P00533+Q96SW2 [UNDEFINED MUTATION]; assay: Protac activity at E3 ubiquitin ligase/EGFR Del19/[…]/C797S mutant assessed as E3 ubiquitin ligase mediated EGFR degradation in human NCI-H1975 cells expressing Del19/[…]/C797S mutant in clone 28 after 16 hrs by HTRF assay relative to control; format: cell-based
[2] = biological target: Protein cereblon/Epidermal growth factor receptor (Homo sapiens, UniProt P00533+Q96SW2); assay: Protac activity at E3 ubiquitin ligase/EGFR Del19/[…]/C797S mutant assessed as E3 ubiquitin ligase mediated EGFR degradation in human NCI-H1975 cells expressing Del19/[…]/C797S mutant in clone 28 after 16 hrs by HTRF assay; format: cell-based
Chain of Protein cereblon/Epidermal growth factor receptor (P00533 whole entry, looked up, stated change not applied): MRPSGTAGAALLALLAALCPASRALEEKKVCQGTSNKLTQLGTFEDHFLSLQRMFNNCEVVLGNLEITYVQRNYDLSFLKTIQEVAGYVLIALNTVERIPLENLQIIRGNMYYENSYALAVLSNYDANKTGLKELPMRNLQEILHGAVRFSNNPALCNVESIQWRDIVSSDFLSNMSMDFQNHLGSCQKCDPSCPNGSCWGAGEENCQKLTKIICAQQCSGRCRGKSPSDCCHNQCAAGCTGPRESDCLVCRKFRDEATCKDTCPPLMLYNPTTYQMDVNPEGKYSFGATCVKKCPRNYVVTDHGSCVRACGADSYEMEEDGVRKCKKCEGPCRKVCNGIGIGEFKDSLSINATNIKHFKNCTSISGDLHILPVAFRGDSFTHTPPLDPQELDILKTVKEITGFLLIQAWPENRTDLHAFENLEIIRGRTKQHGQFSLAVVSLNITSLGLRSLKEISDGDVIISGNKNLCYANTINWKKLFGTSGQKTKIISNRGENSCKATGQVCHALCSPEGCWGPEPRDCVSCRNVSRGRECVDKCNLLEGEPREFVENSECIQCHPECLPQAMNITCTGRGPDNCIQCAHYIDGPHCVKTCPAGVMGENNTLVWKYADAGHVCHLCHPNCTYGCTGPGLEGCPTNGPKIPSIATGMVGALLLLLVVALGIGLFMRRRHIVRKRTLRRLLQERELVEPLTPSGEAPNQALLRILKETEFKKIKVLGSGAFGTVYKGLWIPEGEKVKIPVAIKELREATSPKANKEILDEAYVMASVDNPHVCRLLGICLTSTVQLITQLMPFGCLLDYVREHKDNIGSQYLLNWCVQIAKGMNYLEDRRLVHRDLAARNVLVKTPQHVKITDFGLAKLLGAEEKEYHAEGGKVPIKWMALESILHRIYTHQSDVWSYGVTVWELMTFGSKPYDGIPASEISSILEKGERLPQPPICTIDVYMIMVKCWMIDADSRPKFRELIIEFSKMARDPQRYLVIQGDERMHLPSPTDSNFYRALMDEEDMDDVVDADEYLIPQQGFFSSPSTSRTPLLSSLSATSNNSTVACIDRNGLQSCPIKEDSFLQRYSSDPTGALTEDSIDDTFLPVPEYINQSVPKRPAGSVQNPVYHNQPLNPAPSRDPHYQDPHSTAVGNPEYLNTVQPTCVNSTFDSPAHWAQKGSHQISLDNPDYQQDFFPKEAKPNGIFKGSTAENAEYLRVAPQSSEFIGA
Chain of Protein cereblon/Epidermal growth factor receptor (Q96SW2 whole entry, looked up, stated change not applied): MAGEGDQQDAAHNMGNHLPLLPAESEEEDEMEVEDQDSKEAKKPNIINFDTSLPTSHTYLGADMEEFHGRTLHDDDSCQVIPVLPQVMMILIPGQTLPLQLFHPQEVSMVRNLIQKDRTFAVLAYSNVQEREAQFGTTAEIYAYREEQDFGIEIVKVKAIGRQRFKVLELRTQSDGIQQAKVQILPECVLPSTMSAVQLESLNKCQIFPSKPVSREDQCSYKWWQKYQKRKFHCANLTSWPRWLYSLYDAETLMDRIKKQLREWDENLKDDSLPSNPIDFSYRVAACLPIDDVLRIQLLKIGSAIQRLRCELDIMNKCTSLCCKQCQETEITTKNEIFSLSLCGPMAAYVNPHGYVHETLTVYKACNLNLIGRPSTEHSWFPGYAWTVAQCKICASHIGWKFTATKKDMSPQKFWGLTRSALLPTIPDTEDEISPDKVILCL

Chain of Protein cereblon/Epidermal growth factor receptor (Homo sapiens), P00533+Q96SW2 [UNDEFINED MUTATION] (P00533 whole entry, looked up, stated change not applied): as the sequence (P00533 whole entry, looked up, stated change not applied) above
Chain of Protein cereblon/Epidermal growth factor receptor (Homo sapiens), P00533+Q96SW2 [UNDEFINED MUTATION] (Q96SW2 whole entry, looked up, stated change not applied): as the sequence (Q96SW2 whole entry, looked up, stated change not applied) above

CCc1cc(Nc2ncc(Br)c(Nc3cnc4ccccc4c3P(C)(C)=O)n2)c(OC)cc1N1CCC(N2CCN(CCc3ccc(F)c4c3n(C)c(=O)n4C3CCC(=O)NC3=O)CC2)CC1 (centres undefined)
Emax [1]: 86% | DC50 [2]: 1000 nM

CCc1cc(Nc2ncc(Br)c(Nc3cnc4ccccc4c3P(C)(C)=O)n2)c(OC)cc1N1CCC(N2CCN(CCc3cccc4c3n(CC)c(=O)n4C3CCC(=O)NC3=O)CC2)CC1 (centres undefined)
Emax [1]: 83% | DC50 [2]: 900 nM

CCOc1cc(N2CCC(N3CCN(CCc4cc(F)c(F)c5c4oc(=O)n5C4CCC(=O)NC4=O)CC3)CC2)c(CC)cc1Nc1ncc(Br)c(Nc2cnc3ccccc3c2P(C)(C)=O)n1 (centres undefined)
Emax [1]: 81% | DC50 [2]: 600 nM

CCc1cc(Nc2ncc(Br)c(Nc3cnc4ccccc4c3P(C)(C)=O)n2)c(OC)cc1N1CCC(N2CCN(CCc3cccc4c3n(C3CC3)c(=O)n4C3CCC(=O)NC3=O)CC2)CC1 (centres undefined)
Emax [1]: 85% | DC50 [2]: 700 nM

CCc1cc(Nc2ncc(Br)c(Nc3cnc4ccccc4c3P(C)(C)=O)n2)c(OC)cc1N1CCC(N2CCN(CCc3ccc4c(oc(=O)n4C4CCC(=O)NC4=O)c3F)CC2)CC1 (centres undefined)
Emax [1]: 81% | DC50 [2]: 900 nM

CCOc1cc(N2CCC(N3CCN(CCc4cccc5c4n(C)c(=O)n5C4CCC(=O)NC4=O)CC3)CC2)c(CC)cc1Nc1ncc(Br)c(Nc2cnc3ccccc3c2P(C)(C)=O)n1 (centres undefined)
Emax [1]: 84% | DC50 [2]: 4400 nM

CCOc1cc(N2CCC(N3CCN(CCc4cccc5c4n(C)c(=O)n5C4CCC(=O)NC4=O)CC3)CC2)c(CC)cc1Nc1ncc(Br)c(Nc2cnc3cc(F)ccc3c2P(C)(C)=O)n1 (centres undefined)
Emax [1]: 84% | DC50 [2]: 400 nM
